From ChEMBL document CHEMBL1124075, “Design, synthesis, and biological activity of a peptide mimic of vasopressin” (J Med Chem, 1988)
Bridge positions count the residues as written; N and C are the ends. Square brackets hold non-standard residues; d marks the D form. Peptide text beside a SMILES is read from it. Mpa = O=C(O)CCS

Key:
[1] = target: Vasopressin V2 receptor (Sus scrofa) (UniProt P32307); experiment: Vasopressin V2 receptor binding affinity measured by competition with tritiated LVP lysine vasopressin in pig renal medullary preparation; settings: Renal medulla
Vasopressin V2 receptor = Vasopressin V2 receptor (Sus scrofa, UniProt P32307); experiment: Inhibition of LVP-sensitive adenylate cyclase in a pig renal medullary preparation; assay type: tissue-based, Renal medulla
Chain of Vasopressin V2 receptor (P32307 whole entry): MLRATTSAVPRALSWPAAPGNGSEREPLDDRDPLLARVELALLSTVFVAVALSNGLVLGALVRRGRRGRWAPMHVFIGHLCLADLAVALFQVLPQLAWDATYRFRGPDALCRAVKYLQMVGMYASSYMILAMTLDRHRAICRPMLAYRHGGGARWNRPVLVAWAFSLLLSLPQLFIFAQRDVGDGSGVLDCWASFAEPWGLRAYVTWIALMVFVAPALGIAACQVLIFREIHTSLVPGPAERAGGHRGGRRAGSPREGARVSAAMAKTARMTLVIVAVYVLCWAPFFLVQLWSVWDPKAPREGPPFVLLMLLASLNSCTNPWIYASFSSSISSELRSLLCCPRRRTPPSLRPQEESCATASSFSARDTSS

Chain of Vasopressin V2 receptor (Sus scrofa) (P32307 whole entry): as above

Row | SMILES | K bind [1] | Ki (Vasopressin V2 receptor)
1 | CC(C)[C@@H]1NC(=O)[C@H](Cc2ccccc2)NC(=O)[C@H](Cc2ccccc2)NC(=O)CCSSC[C@@H](C(=O)N2CCC[C@H]2C(=O)N[C@@H](CCCN=C(N)N)C(=O)NCC(N)=O)NC(=O)[C@H](CC(N)=O)NC1=O ([Mpa]FFVNCPRG-NH2; disulfide 1-6) | 0.1 µM | 0.01 µM
2 | CC(C)[C@@H]1NC(=O)[C@H](Cc2ccccc2)NC(=O)[C@H](Cc2ccccc2)NC(=O)CCC[C@H](C(=O)N2CCC[C@H]2C(=O)N[C@@H](CCCN=C(N)N)C(=O)NCC(N)=O)NC(=O)[C@H](CC(N)=O)NC1=O | 29 µM | 9.2 µM
3 | CC(C)[C@@H]1NC(=O)[C@H](Cc2ccccc2)NC(=O)[C@H](Cc2ccccc2)NC(=O)CCC[C@@H](C(=O)N2CCC[C@H]2C(=O)N[C@@H](CCCN=C(N)N)C(=O)NCC(N)=O)NC(=O)[C@H](CC(N)=O)NC1=O | 15 µM | 7 µM
